From ChEMBL document CHEMBL1140081 (J Med Chem, 2008)

Columns and labels:
[1] = biological target: Human immunodeficiency virus type 1 integrase (Human immunodeficiency virus 1, UniProt Q7ZJM1); assay: Inhibition of HIV1 recombinant integrase strand transfer activity
[2] = tested on: Human immunodeficiency virus 1; assay: Antiviral activity against HIV1 3B in human MT4 cells in presence of 50% normal human serum; format: functional; conditions: Human immunodeficiency virus 1, 3B, MT4; read-out: CIC95
[3] = tested on: Human immunodeficiency virus 1; assay: Antiviral activity against HIV1 3B in human MT4 cells in presence of 10% heat-inactivated fetal bovine serum; conditions: Human immunodeficiency virus 1, 3B, read-out: CIC95

Sequence of Human immunodeficiency virus type 1 integrase (Q7ZJM1 whole entry): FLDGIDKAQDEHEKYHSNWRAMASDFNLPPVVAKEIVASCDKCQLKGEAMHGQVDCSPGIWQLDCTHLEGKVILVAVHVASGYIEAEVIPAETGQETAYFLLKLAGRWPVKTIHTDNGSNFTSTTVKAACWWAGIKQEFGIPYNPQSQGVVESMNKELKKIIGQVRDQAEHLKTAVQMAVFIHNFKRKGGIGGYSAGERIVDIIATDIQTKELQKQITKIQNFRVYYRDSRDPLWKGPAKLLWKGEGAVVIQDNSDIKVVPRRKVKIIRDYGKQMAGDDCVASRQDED

| Structure (SMILES) | IC50 [1] | IC95 [2] | IC95 [3] |
| --- | --- | --- | --- |
| CN(C)C(=O)NC(C)(C)c1nc(C(=O)NCc2ccc(F)cc2)c(O)c(=O)n1C | 18 nM | > 1000 nM | 1000 nM |
| Cn1c(C(C)(C)NC(=O)c2cccnn2)nc(C(=O)NCc2ccc(F)cc2)c(O)c1=O | 15 nM | 500 nM | 62 nM |
| Cn1c(C(C)(C)NC(=O)C(=O)N2CCOCC2)nc(C(=O)NCc2ccc(F)cc2)c(O)c1=O | 20 nM | 125 nM | 125 nM |
| Cn1c(C(C)(C)NC(=O)c2cnco2)nc(C(=O)NCc2ccc(F)cc2)c(O)c1=O | 7 nM | 500 nM | 500 nM |
| CN(C)C(=O)C(=O)NC(C)(C)c1nc(C(=O)NCc2ccc(F)cc2S(C)(=O)=O)c(O)c(=O)n1C | 4 nM | 125 nM | 125 nM |
| CN(C)C(=O)C(=O)N(C)C(C)(C)c1nc(C(=O)NCc2ccc(F)cc2)c(O)c(=O)n1C | 15 nM | 125 nM | 62 nM |
| CN1CCN(C(=O)C(=O)NC(C)(C)c2nc(C(=O)NCc3ccc(F)cc3)c(O)c(=O)n2C)CC1 | 26 nM | 250 nM | 125 nM |
| CN(C)C(C)(C)c1nc(O)c(O)c(C(=O)NCc2ccc(F)cc2)n1 |  | 78 nM | 60 nM |
